# Experimental data taken from patent US20250154163A1, “Pyrimidinone-Containing 17-Beta-Hydroxysteroid Dehydrogenase Type 13 Inhibitors” (ENANTA PHARMACEUTICALS, INC., priority 2023, published 2025).
# What was measured:
# [1] = molecular target: T1, human HSD17β13 (stable HEK293T cell line overexpressing human HSD17β13) (Homo sapiens, UniProt Q7Z5P4); test: HSD17β13 inhibitor cell-based screening assay (conversion of estradiol-d2 to estrone-d2 by RF-MS); settings: conversion of estradiol-d2 to estrone-d2 after 24 hours
# T1 construct: expressed in transfected cells
# T1 sequence (Q7Z5P4 20-300): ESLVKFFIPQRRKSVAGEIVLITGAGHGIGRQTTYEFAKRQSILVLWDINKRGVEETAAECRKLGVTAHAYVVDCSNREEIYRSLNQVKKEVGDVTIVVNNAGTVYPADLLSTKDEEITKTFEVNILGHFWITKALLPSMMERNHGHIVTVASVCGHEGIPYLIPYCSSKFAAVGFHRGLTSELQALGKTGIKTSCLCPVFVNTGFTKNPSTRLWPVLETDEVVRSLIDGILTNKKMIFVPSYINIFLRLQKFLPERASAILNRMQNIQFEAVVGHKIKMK
# Outline: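 Cellular IC50 is based on 24-h conversion of estradiol-d2 (5 μM final) to estrone-d2, measured by RF-MS in acetonitrile-precipitated supernatants. Assay uses human HSD17β13-overexpressing HEK293T cells (7.5E3/well, 1% charcoal/dextran FBS MEM), with compounds dosed as a 9-point 1:3 series to 10 μM final. ATPlite luminescence on overexpressing and parent lines measured viability.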
# [2] = molecular target: T2, Recombinant human 17β-HSD13 (Homo sapiens, UniProt Q7Z5P4); test: 17β-HSD13 rapid-fire mass spectrometry assay (RF/MS assay); format: biochemical; settings: inhibition of 17β-HSD13, RF/MS assay; HSD17B13 80 nM, LTB4 10 μM, NAD+ 0.5 mM, RT 3 h
# T2 construct: host or cells: Sf9 insect cells
# T2 sequence (Q7Z5P4 20-300): T1 sequence (Q7Z5P4 20-300)
# Source text: 17(3-HSD13 rapid-fire mass spectrometry assay (RF/MS assay). Recombinant human 17β-HSD13 was expressed and purified from sf9 cells at Charles River Labs (Saffron Walden, UK). Leukotriene B4 (Catalog #71160-24-2) and 12-oxoleukotriene B4 (Catalog #20140) were purchased from Cayman Chemicals (Ann Arbor, MI). NAD+ (Catalog #N8285), BSA (Catalog #A7030), DMSO (Catalog #D2650), and Tween-20 (Catalog #11332465001) were purchased from Sigma (St. Louis, MO). Formic acid (Catalog #28905) was from ThermoFisher Scientific and 384 deep well PP microplates (Catalog #784261) were from Greiner Bio-One. In a typical IC50 assay performed in a 384w PP microplate, test compounds (0-100 μM) were incubated with HSD17B13 (80 nM), LTB4 (10 μM), and NAD^+ (0.5 mM) in 10 μL assay buffer (20 mM Tris (pH 7.5), BSA (0.005%), and Tween-20 (0.01%)) at RT for 3 h. The assays were quenched by adding 20 μL of 0.15% aqueous formic acid and the plates were frozen at −80° C. RF/MS analysis was performed at PureHoney Technologies (Billerica, MA) on a RapidFire RF300 system (Agilent Technologies, Inc.) coupled to an API 4000 triple quadrupole mass spectrometer (Sciex) equipped with Agilent RapidFire cartridge type A (C4). The mobile phase was 0.09% formic acid and 0.01% trifluoracetic acid in water (Buffer A) and 0.09% formic acid and 0.01% trifluoracetic acid in 80% aqueous acetonitrile (Buffer B). The RapidFire method conditions were the following: 250 ms aspirate, 3000 ms load/desalt, 4000 ms elute, and 500 ms re-equilibrate. RF-MS/MS was performed in negative polarity (−4500 V), the source temperature was 650° C., and gas 1 and gas 2 settings for nitrogen were set to 50. The curtain gas and collision gas were also nitrogen and were set to 20 and 12, respectively. Leukotriene B4 (335.3) and 12-oxoLeukotriene B4 (333.3) SRM transitions were optimized with Discovery Quant software and extracted ion counts for these analytes were determined.
# Data Analysis. 17β-HSD13 enzyme activity was measured as percent conversion of extracted ion counts and normalized to high and low controls to determine percent residual activity at various concentrations of test compounds. Data was fitted to normalized activity (variable slope) versus concentration fit in GraphPad Prism 7 to determine IC50. All experiments were run in duplicates.
# By using the above method, the inhibition of 17β-HSD13 was evaluated for the compounds of Formula (I). IC50 ranges are as follows: A is <0.1 μM; B is 0.1 μM-1.0 μM; C is 1.0 μM-10 μm; and D is >10 μM.
SMILES,IC50 [1] [µM],IC50 [2] [µM]
"COC(=O)c1cccc2c1sc1nc(-c3ccc(OC)cc3C3CC3)n(Cc3cnco3)c(=O)c12 [Example 1, methyl 2-(2-cyclopropyl-4-methoxyphenyl)-3-(oxazol-5-ylmethyl)-4-oxo-3,4-dihydrobenzo[4,5]thieno[2,3-d]pyrimidine-8-carboxylate]",1 to 100,> 10
"COc1ccc(-c2nc3sc4c(C(=O)O)cccc4c3c(=O)n2Cc2cnco2)c(C2CC2)c1 [Example 2, 2-(2-cyclopropyl-4-methoxyphenyl)-3-(oxazol-5-ylmethyl)-4-oxo-3,4-dihydrobenzo[4,5]thieno[2,3-d]pyrimidine-8-carboxylic acid]",1 to 100,0.1 to 1
"COc1ccc(-c2nc3sc4c(C(N)=O)cccc4c3c(=O)n2Cc2cnco2)c(C2CC2)c1 [Example 3, 2-(2-cyclopropyl-4-methoxyphenyl)-3-(oxazol-5-ylmethyl)-4-oxo-3,4-dihydrobenzo[4,5]thieno[2,3-d]pyrimidine-8-carboxamide]",1 to 100,1 to 10
"COc1ccc(-c2nc3sc4c(NC(C)=O)cccc4c3c(=O)n2Cc2cnco2)c(C2CC2)c1 [Example 4, N-(2-(2-cyclopropyl-4-methoxyphenyl)-3-(oxazol-5-ylmethyl)-4-oxo-3,4-dihydrobenzo[4,5]thieno[2,3-d]pyrimidin-8-yl)acetamide]",1 to 100,> 10
"COc1ccc(-c2nc3sc4c(N(C(C)=O)C(C)=O)cccc4c3c(=O)n2Cc2cnco2)c(C2CC2)c1 [Example 5, N-acetyl-N-(2-(2-cyclopropyl-4-methoxyphenyl)-3-(oxazol-5-ylmethyl)-4-oxo-3,4-dihydrobenzo[4,5]thieno[2,3-d]pyrimidin-8-yl)acetamide]",1 to 100,> 10
"COc1ccc(-c2nc3sc4c(N)cccc4c3c(=O)n2Cc2cnco2)c(C2CC2)c1 [Example 6, 8-amino-2-(2-cyclopropyl-4-methoxyphenyl)-3-(oxazol-5-ylmethyl)benzo[4,5]thieno[2,3-d]pyrimidin-4(3H)-one]",1 to 100,> 10
"COc1ccc(-c2nc3sc4c(NS(C)(=O)=O)cccc4c3c(=O)n2Cc2cnco2)c(C2CC2)c1 [Example 7, N-(2-(2-cyclopropyl-4-methoxyphenyl)-3-(oxazol-5-ylmethyl)-4-oxo-3,4-dihydrobenzo[4,5]thieno[2,3-d]pyrimidin-8-yl)methanesulfonamide]",1 to 100,> 10
"COc1ccc(-c2nc3sc4c(OC)cccc4c3c(=O)n2Cc2cnco2)c(C2CC2)c1 [Example 8, 2-(2-cyclopropyl-4-methoxyphenyl)-8-methoxy-3-(oxazol-5-ylmethyl)benzo[4,5]thieno[2,3-d]pyrimidin-4(3H)-one]",1 to 100,> 10
"COc1ccc(-c2nc3sc4c(-c5ncco5)cccc4c3c(=O)n2Cc2cnco2)c(C2CC2)c1 [Example 9, 2-(2-cyclopropyl-4-methoxyphenyl)-8-(oxazol-2-yl)-3-(oxazol-5-ylmethyl)benzo[4,5]thieno[2,3-d]pyrimidin-4(3H)-one]",1 to 100,> 10
"CCCCc1cccc2c1sc1nc(-c3ccc(OC)cc3C3CC3)n(Cc3cnco3)c(=O)c12 [Example 10, 8-butyl-2-(2-cyclopropyl-4-methoxyphenyl)-3-(oxazol-5-ylmethyl)benzo[4,5]thieno[2,3-d]pyrimidin-4(3H)-one]",0.1 to 0.5,> 10
"COc1ccc(-c2nc3sc4c(B(O)O)cccc4c3c(=O)n2Cc2cnco2)c(C2CC2)c1 [Example 11, (2-(2-cyclopropyl-4-methoxyphenyl)-3-(oxazol-5-ylmethyl)-4-oxo-3,4-dihydrobenzo[4,5]thieno[2,3-d]pyrimidin-8-yl)boronic acid]",0.5 to 1,0.1 to 1
"COc1ccc(-c2nc3sc4c(F)cccc4c3c(=O)n2Cc2cnco2)c(C2CC2)c1 [Example 13, 2-(2-cyclopropyl-4-methoxyphenyl)-8-fluoro-3-(oxazol-5-ylmethyl)benzo[4,5]thieno[2,3-d]pyrimidin-4(3H)-one]",1 to 100,> 10
"C=Cc1cccc2c1sc1nc(-c3ccc(OC)cc3C3CC3)n(Cc3cnco3)c(=O)c12 [Example 14, 2-(2-cyclopropyl-4-methoxyphenyl)-3-(oxazol-5-ylmethyl)-8-vinylbenzo[4,5]thieno[2,3-d]pyrimidin-4(3H)-one]",1 to 100,> 10
"COc1ccc(-c2nc3sc4c(O)c(Cl)cc(F)c4c3c(=O)n2Cc2cnco2)c(C2CC2)c1 [Example 218, 7-chloro-2-(2-cyclopropyl-4-methoxyphenyl)-5-fluoro-8-hydroxy-3-(oxazol-5-ylmethyl)benzo[4,5]thieno[2,3-d]pyrimidin-4(3H)-one]",< 0.1,–
COc1ccc(-c2nc3sc4c(O)c(Cl)cc(C)c4c3c(=O)n2Cc2cnco2)c(C2CC2)c1 [Example 221],0.1 to 0.5,–
COc1ccc(-c2nc3sc4c(O)c(Cl)cc(Br)c4c3c(=O)n2Cc2cnco2)c(C2CC2)c1 [Example 222],0.1 to 0.5,–
"COc1ccc(-c2nc3sc4c(O)c(F)cc(F)c4c3c(=O)n2Cc2cnco2)c(C2CC2)c1 [Example 223, 2-(2-cyclopropyl-4-methoxyphenyl)-5,7-difluoro-8-hydroxy-3-(oxazol-5-ylmethyl)benzo[4,5]thieno[2,3-d]pyrimidin-4(3H)-one]",< 0.1,–

# More lines, now with the values ahead:
IC50 [1] [µM],IC50 [2] [µM],SMILES
< 0.1,–,O=c1c2c(nc(-c3cc(F)c(F)cc3C3CC3)n1Cc1cnccn1)sc1c(O)c(Cl)ccc12 [Example 207]
< 0.1,–,COCc1cc(Cn2c(-c3cc(F)c(F)cc3C3CC3)nc3sc4c(O)c(Cl)ccc4c3c2=O)on1 [Example 208]
< 0.1,–,O=c1c2c(nc(-c3cc(F)c(F)cc3C3CC3)n1Cc1nncs1)sc1c(O)c(Cl)ccc12 [Example 209]
< 0.1,–,N#Cc1ncc(Cn2c(-c3cc(F)c(F)cc3C3CC3)nc3sc4c(O)c(Cl)ccc4c3c2=O)s1 [Example 210]
< 0.1,–,O=c1c2c(nc(-c3cc(F)c(F)cc3C3CC3)n1Cc1cnn(C(F)(F)F)c1)sc1c(O)c(Cl)ccc12 [Example 211]
< 0.1,–,O=c1c2c(nc(-c3cc(F)c(F)cc3C3CC3)n1Cc1ccns1)sc1c(O)c(Cl)ccc12 [Example 212]
1 to 100,–,O=c1c2c(nc(-c3cc(F)c(F)cc3C3CC3)n1Cc1nn[nH]n1)sc1c(O)c(Cl)ccc12 [Example 213]
< 0.1,–,O=c1c2c(nc(-c3cc(F)c(F)cc3C3CC3)n1Cc1cn[nH]n1)sc1c(O)c(Cl)ccc12 [Example 214]
< 0.1,–,O=c1c2c(nc(-c3cc(F)c(F)cc3C3CC3)n1Cc1cn[nH]c1)sc1c(O)c(Cl)ccc12 [Example 215]
< 0.1,–,Cn1cc(Cn2c(-c3cc(F)c(F)cc3C3CC3)nc3sc4c(O)c(Cl)ccc4c3c2=O)cn1 [Example 216]
< 0.1,–,O=c1c2c(nc(-c3cc(F)c(F)cc3C3CC3)n1Cc1nnc(C(F)(F)F)s1)sc1c(O)c(Cl)ccc12 [Example 217]
< 0.1,–,"O=c1c2c(nc(-c3cc(F)c(F)cc3C3CC3)n1Cc1cc(C(F)(F)F)no1)sc1c(O)c(Cl)cc(F)c12 [Example 219, 7-chloro-2-(2-cyclopropyl-4,5-difluorophenyl)-5-fluoro-8-hydroxy-3-((3-(trifluoromethyl)isoxazol-5-yl)methyl)benzo[4,5]thieno[2,3-d]pyrimidin-4(3H)-one]"
